Measurements: US20220315554A1, “COMPOUNDS COMPRISING A […] LIGAND AND USE THEREOF” (priority 2019, published 2022)
Numbered stars: 1 amine (or outer) side, 2 acyl side, 3 side chain; on linkers, the order of the positions; unused ones are H or OH. Bridge positions count the residues as written; N and C are the ends. Square brackets hold non-standard residues; d marks the D form. Peptide text beside a SMILES is read from it. * marks the point of attachment. X5 = O=C(O)CN1CCN(CC(=O)O)CCN(CC(=O)NCCSCc2cc(CSC[C@@H](CO)N[*:2])cc(C[*:1])c2)CCN(CC(=O)O)CC1; X1 = O=C(O)CN1CCN(CC(=O)O)CCN(CC(=O)N2CCN(Cc3cc(C[*:1])cc(C[*:2])c3)CC2)CCN(CC(=O)O)CC1; X42 = NCCNCC(CNCCN)C(=O)N[C@@H](CCC(=O)NCCCOCCOCCOCCCN*)C(=O)O; Pyridine(2,6-diCH2) = c1cc(C[*:1])nc(C[*:2])c1; Phe(2-CF3) = N[C@@H](Cc1ccccc1C(F)(F)F)C(=O)O; X40 = NCCNCC(CNCCN)C(=O)NCCS(=O)(=O)CCN*; mXylylene = c1cc(C[*:1])cc(C[*:2])c1; X41 = NCCCCCC(=O)NCCCOCCOCCOCCCN*; Suc = O=C(CCC(=O)[*:2])[*:1]; Nle = CCCC[C@H](N)C(=O)O; Hexanoyl = CCCCCC(=O)*; CO = O=C([*:1])[*:2]; NHPentyl = CCCCCN*

Tests used:
[1] = biological target: T1, FAP-expressing human WI-38 fibroblasts (Homo sapiens, UniProt Q12884); assay: Competitive FACS binding assay; conditions: pIC50 Category (FACS), competition with 3 nM Cy5-labeled compound, 4° C., 1 hour
T1 construct: FAP-expressing human WI-38 fibroblasts (ECACC) were cultured in EMEM; host or cells: WI-38 human fibroblasts
T1 sequence (Q12884 1-760): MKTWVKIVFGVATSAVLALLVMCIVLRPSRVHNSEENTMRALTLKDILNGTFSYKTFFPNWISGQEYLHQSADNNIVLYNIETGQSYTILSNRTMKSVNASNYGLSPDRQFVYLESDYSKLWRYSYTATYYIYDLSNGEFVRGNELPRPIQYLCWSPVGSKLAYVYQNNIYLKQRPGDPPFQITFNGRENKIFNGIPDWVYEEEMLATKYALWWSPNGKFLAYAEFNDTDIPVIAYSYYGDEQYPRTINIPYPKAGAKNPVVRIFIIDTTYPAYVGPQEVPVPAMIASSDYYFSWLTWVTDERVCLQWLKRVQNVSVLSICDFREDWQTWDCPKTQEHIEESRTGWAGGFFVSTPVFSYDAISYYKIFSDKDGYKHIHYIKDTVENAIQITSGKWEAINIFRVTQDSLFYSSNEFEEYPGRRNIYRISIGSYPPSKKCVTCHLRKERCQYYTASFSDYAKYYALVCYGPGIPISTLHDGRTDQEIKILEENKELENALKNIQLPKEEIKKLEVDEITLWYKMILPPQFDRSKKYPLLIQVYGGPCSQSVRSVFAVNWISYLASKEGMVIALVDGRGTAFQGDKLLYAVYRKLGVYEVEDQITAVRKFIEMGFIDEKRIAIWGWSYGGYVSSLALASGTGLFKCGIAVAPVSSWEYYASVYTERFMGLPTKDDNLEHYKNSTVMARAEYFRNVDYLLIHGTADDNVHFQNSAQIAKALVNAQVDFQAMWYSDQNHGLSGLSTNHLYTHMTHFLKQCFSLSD
Description: Cells were analyzed in an Attune NxT flow cytometer. […]

[2] = biological target: T2, Human recombinant FAP (Homo sapiens, UniProt Q12884); assay: FRET-based FAP protease activity assay; assay type: biochemical; set-up: purchased R&D systems 3715-SE; conditions: pIC50 Category (Activity), FRET substrate, 37° C.
T2 sequence (Q12884 1-760): T1 sequence (Q12884 1-760)

Row | SMILES | IC50 [1] [nM] | IC50 [2] [nM] | IC50 ([1]; WI-38 fibroblasts) [nM] | IC50 ([2]; recombinant human FAP) [nM]
1 | CCCCCC(=O)N[C@H]1CSCc2cc(CSCCNC(=O)[C@H](CO)NC(=O)[C@H](CO)NC(=O)[C@H](CO)NC(=O)CS)cc(c2)CSC[C@@H](C(=O)O)NC(=O)[C@H](Cc2ccccc2)NC(=O)[C@H](CCC(N)=O)NC(=O)[C@H]([C@@H](C)O)NC(=O)[C@@H]2CCCN2C(=O)[C@@H]2CCCN2C1=O [3BP-4301, Hex-[Cys-(tMeBn(H-SAc-Ser-Ser-Ser-AET))-Pro-Pro-Thr-Gln-Phe-Cys]-OH] | 10 to 79.4 | 10 to 79.4 | – | –
2 | CCCC[C@H](NC(=O)CCC(=O)NCCS(=O)(=O)CCNC(=O)C(CNCCN)CNCCN)C(=O)N[C@H]1CSCc2cccc(c2)CSC[C@@H](C(=O)O)NC(=O)[C@H](Cc2ccccc2)NC(=O)[C@H](CCC(=O)O)NC(=O)[C@H]([C@@H](C)O)NC(=O)[C@@H]2CCCN2C(=O)[C@@H]2CCCN2C1=O [3BP-4243, N4Ac-Efa-Nle-[Cys-(3MeBn)-Pro-Pro-Thr-Glu-Phe-Cys]-OH] ({X40-Suc}-[Nle]CPPTEFC-OH; linker 2-8 via mXylylene) | 10 to 79.4 | 10 to 79.4 | – | –
3 | C[C@@H](O)[C@@H]1NC(=O)[C@@H]2CCCN2C(=O)[C@@H]2CCCN2C(=O)[C@@H](NC(=O)[C@H](CCCCNC(N)=O)NC(=O)CCC(=O)NCCCOCCOCCOCCCNC(=O)CN2CCN(CC(=O)O)CCN(CC(=O)O)CCN(CC(=O)O)CC2)CSCc2cccc(c2)CSC[C@@H](C(=O)NCCC(=O)O)NC(=O)[C@H](Cc2ccccc2)NC(=O)[C@H](CCC(N)=O)NC1=O [3BP-3399, DOTA-Ttds-Hci-[Cys(3MeBn)-Pro-Pro-Thr-Gln-Phe-Cys]-Bal-OH] | – | – | > 1000 | > 1000
4 | CCCCCC(=O)N[C@H]1CSCc2cc(CSCCNC(=O)CN3CCN4CCN5CCN(CC3)CC(=O)[O][Lu]([O]C(=O)C4)[O]C(=O)C5)cc(c2)CSC[C@@H](C(=O)N[C@@H](CC(=O)O)C(=O)NCCCC(=O)NC(CCCNC(=N)N)C(=O)NCCCOCCOCCOCCCNC(=O)CCC(=O)NC(CCCCNC(=O)c2ccc(-c3c4ccc(=N)c(S(=O)(=O)O)c-4oc4c(S(=O)(=O)O)c(N)ccc34)c(C(=O)O)c2)C(N)=O)NC[C@H](Cc2ccccc2)NC(=O)[C@H](CCC(N)=O)NC(=O)C([C@@H](C)O)NC(=O)[C@@H]2CCCN2C(=O)[C@@H]2CCCC2C1=O (stereo partly drawn) [3BP-4372, Hex-[Cys(tMeBn(LuDOTA-AET))-Pro-Pro-Thr-Gln-Phe-Cys]-Asp-Gab-Arg-Ttds-Lys(AF488)-NH2] | < 10 | < 10 | – | –
5 | CCCCCNC(=O)N[C@H]1CSCc2cccc(c2)CSC[C@@H](C(=O)N[C@@H](CC(=O)O)C(N)=O)NC(=O)[C@H](Cc2ccccc2)NC(=O)[C@H](CCC(N)=O)NC(=O)[C@H]([C@@H](C)O)NC(=O)[C@@H]2CCCN2C(=O)[C@@H]2CCCN2C1=O [3BP-3425, PentylNH-urea-[Cys(3MeBn)-Pro-Pro-Thr-Gln-Phe-Cys]-Asp-NH2] ({NHPentyl-CO}-CPPTQFCD-NH2; linker 1-7 via mXylylene) | – | – | 10 to 79.4 | < 10
6 | CCCCCC(=O)N[C@H]1CSCc2cccc(n2)CSC[C@@H](C(=O)N[C@@H](CC(=O)O)C(N)=O)NC(=O)[C@H](Cc2ccccc2)NC(=O)[C@H](CCC(N)=O)NC(=O)[C@H]([C@@H](C)O)NC(=O)[C@@H]2CCCN2C(=O)[C@@H]2CCCN2C1=O [3BP-3518, Hex-[Cys(2Lut)-Pro-Pro-Thr-Gln-Phe-Cys]-Asp-NH2] (Hexanoyl-CPPTQFCD-NH2; linker 1-7 via Pyridine(2,6-diCH2)) | – | – | < 10 | < 10
7 | CCCCCC(=O)N[C@H]1CSCc2cc(CSCCNC(=O)CN3CCN(CC(=O)O)CCN(CC(=O)O)CCN(CC(=O)O)CC3)cc(c2)CSC[C@@H](C(=O)O)NC(=O)[C@H](Cc2cccnc2)NC(=O)[C@H](CCC(N)=O)NC(=O)[C@H]([C@@H](C)O)NC(=O)[C@@H]2CCCN2C(=O)[C@@H]2CCCN2C1 [3BP-3664, Hex-[Cys(tMeBn(DOTA-AET))-Pro-Pro-Thr-Gln-Mpa-Cys]-OH] | < 10 | < 10 | – | –
8 | CCCCCC(=O)N[C@H]1CSCc2cccc(c2)CSC[C@@H](C(=O)N[C@@H](CC(=O)O)C(N)=O)NC(=O)[C@H](Cc2ccccc2C(F)(F)F)NC(=O)[C@H](CCC(N)=O)NC(=O)[C@H]([C@@H](C)O)NC(=O)[C@@H]2CCCN2C(=O)[C@@H]2CCCN2C1=O [3BP-3409, Hex-[Cys(3MeBn)-Pro-Pro-Thr-Gln-Otf-Cys]-NH2] (Hexanoyl-CPPTQ[Phe(2-CF3)]CD-NH2; linker 1-7 via mXylylene) | – | – | 10 to 79.4 | < 10
9 | CCCCCC(=O)N[C@H]1CSCc2cc(CSCCNC(=O)CN3CCN(CC(=O)O)CCN(CC(=O)O)CCN(CC(=O)O)CC3)cc(c2)CSC[C@@H](CO)NC(=O)[C@H](Cc2ccccc2)NC(=O)[C@H](CCC(N)=O)NC(=O)[C@H]([C@@H](C)O)NC(=O)[C@@H]2CCCN2C(=O)[C@@H]2CCCN2C1=O [3BP-3762, Hex-[Cys(tMeBn(DOTA-AET))-Pro-Pro-Thr-Gln-Phe-Cysol]] (Hexanoyl-CPPTQF; linker 1-C via X5) | > 1000 | 100 to 794 | – | –
10 | CCCCCC(=O)N[C@H]1CSCc2cc(CSCCNC(=O)[C@H](CS)NC(=O)[C@H](CC(=O)O)NC(=O)[C@@H](N)CC(=O)O)cc(c2)CSC[C@@H](C(=O)O)NC(=O)[C@H](Cc2ccccc2)NC(=O)[C@H](CCC(N)=O)NC(=O)[C@H]([C@@H](C)O)NC(=O)[C@@H]2CCCN2C(=O)[C@@H]2CCCN2C1=O [3BP-4303, Hex-[Cys-(tMeBn(H-Asp-Asp-Cys-AET))-Pro-Pro-Thr-Gln-Phe-Cys]-OH] | 100 to 794 | 10 to 79.4 | – | –
11 | CCCCCC(=O)N[C@H]1CSCc2cc(CSCCNC(=O)CN(CCN(CC(=O)O)CC(=O)O)CCN(CC(=O)O)CC(=O)O)cc(c2)CSC[C@@H](C(=O)O)NC(=O)[C@H](Cc2ccccc2)NC(=O)[C@H](CCC(N)=O)NC(=O)[C@H]([C@@H](C)O)NC(=O)[C@@H]2CCCN2C(=O)[C@@H]2CCCN2C1=O [3BP-4214, Hex-[Cys-(tMeBn(DTPA-AET))-Pro-Pro-Thr-Gln-Phe-Cys]-OH] | 10 to 79.4 | 10 to 79.4 | – | –
12 | CCCC[C@H](NC(=O)CCC(=O)NCCCOCCOCCOCCCNC(=O)CC[C@H](NC(=O)C(CNCCN)CNCCN)C(=O)O)C(=O)N[C@H]1CSCc2cccc(c2)CSC[C@@H](C(=O)O)NC(=O)[C@H](Cc2ccccc2)NC(=O)[C@H](CCC(=O)O)NC(=O)[C@H]([C@@H](C)O)NC(=O)[C@@H]2CCCN2C(=O)[C@@H]2CCCN2C1=O [3BP-4245, N4Ac-gGlu-Ttds-Nle-[Cys-(3MeBn)-Pro-Pro-Thr-Gln-Phe-Cys]-OH] ({X42-Suc}-[Nle]CPPTEFC-OH; linker 2-8 via mXylylene) | 10 to 79.4 | 10 to 79.4 | – | –
13 | CSCC[C@H](NC(C)=O)C(=O)N[C@H]1CSCc2cccc(c2)CSC[C@@H](C(=O)N[C@@H](CC(=O)O)C(=O)N[C@@H](Cc2c[nH]cn2)C(=O)N[C@@H](Cc2ccccc2)C(=O)N[C@@H](CCCNC(=N)N)C(=O)N[C@@H](C)C(N)=O)NC(=O)[C@H](Cc2ccccc2)NC(=O)[C@H](CCC(=O)O)NC(=O)[C@H]([C@@H](C)O)NC(=O)[C@@H]2CCCN2C(=O)[C@@H]2CCCN2C1=O [3BP-3198, Ac-Met-[Cys(3MeBn)-Pro-Pro-Thr-Glu-Phe-Cys]-Asp-His-Phe-Arg-Ala-NH2] (Ac-MCPPTEFCDHFRA-NH2; linker 2-8 via mXylylene) | – | – | < 10 | < 10
14 | CC(C)C[C@H](NC(=O)CCC(=O)NCCCOCCOCCOCCOCCCNC(=O)CN1CCN(CC(=O)O)CCN(CC(=O)O)CCN(CC(=O)O)CC1)C(=O)N[C@H]1CSCc2cccc(c2)CSC[C@@H](C(=O)N[C@@H](CC(=O)O)C(=O)N[C@@H](Cc2c[nH]cn2)C(=O)N[C@@H](Cc2ccccc2)C(=O)N[C@@H](CCCNC(=N)N)C(=O)N[C@@H](CC(=O)O)C(N)=O)NC(=O)[C@H](Cc2ccccc2)NC(=O)[C@H](CCC(=O)O)NC(=O)[C@H]2NC(=O)[C@@H]3C(CCN3C(=O)[C@@H]3CCCN3C1=O)[C@H]2O [3BP-3172, DOTA-Ttds-Leu-[Cys(3MeBn)-Pro-Pro-Thr-Glu-Phe-Cys]-Asp-His-Phe-Arg-Asp-NH2] | – | – | < 10 | < 10
15 | CCCC[C@H](NC(=O)CCC(=O)NCCCOCCOCCOCCCNC(=O)CCCCCN)C(=O)N[C@H]1CSCc2cc(cc(CN3CCN(C(=O)CN4CCN(CC(=O)O)CCN(CC(=O)O)CCN(CC(=O)O)CC4)CC3)c2)CSC[C@@H](C(=O)N[C@@H](CC(=O)O)C(N)=O)NC(=O)[C@H](Cc2ccccc2)NC(=O)[C@H](CCC(N)=O)NC(=O)[C@H]([C@@H](C)O)NC(=O)[C@@H]2CCCN2C(=O)[C@@H]2CCCN2C1=O [3BP-4004, H-Ahx-Ttds-Nle-[Cys-(tMeBn(DOTA-PP))-Pro-Pro-Thr-Gln-Phe-Cys]-Asp-NH2] ({X41-Suc}-[Nle]CPPTQFCD-NH2; linker 2-8 via X1) | 10 to 79.4 | < 10 | – | –
